Experimental data taken from patent US9278100B2, “Inhibitors of bruton's tyrosine kinase for the treatment of solid tumors” (Pharmacyclics LLC, priority 2008, dated 2016).
Values belong to the molecule of their own block, whether it stands above or below them.

Tests used:
[1] = Plasma concentrations in orally dosed rats; assay type: in vivo, Male jugular vein cannulated rats; details: rat, 8 mg/kg single dose by oral gavage, in combination
Method: Male jugular vein cannulated rats were administered a single dose of all test compounds at 8 mg/kg each, in combination by oral gavage. Dose volumes were adjusted based on body weight data collected immediately prior to dosing. Blood samples were collected at 0.0833 (5 minutes), 0.333 (20 minutes), 1, 3, 6, 9, and 24 hours post-dosing from orally dosed rats. The samples were collected into plasma separator Microtainer tubes with anticoagulant (lithium heparin). Plasma samples were prepared by centrifugation (5 min at 5000×g), and at least 100 μL were transferred to storage tubes and stored frozen at −80° C. Plasma samples were thawed and 75 uL aliquots were transferred to centrifuge tubes to which 10 μL aliquots of internal standard solution (1 μg/mL) were added. The samples were not diluted with blank plasma prior to further processing. Soluble proteins were precipitated by the addition of 200 μL of acetonitrile, followed by centrifugation (20 min at 16,000×g). The samples were evaporated to dryness and reconstituted in 200 μL of water containing 0.2% formic acid and 10% methanol. All samples were loaded onto an autosampler maintained at 6° C. and evaluated for concentrations of test compounds using LC-MS/MS.

[2] = test system: proteinuria; assay: Mouse MRL/lpr model of lupus; assay type: in vivo, MRL/lpr mice; details: 3.125 mg/kg, 12.5 mg/kg, and 50 mg/kg orally once per day
[3] = test system: MDA-MB-453 xenograft; assay: MDA-MB-453 breast cancer xenograft; assay type: in vivo, nude mice; details: 50 mg/kg or 5 mg/kg daily, tumor volume (FIG. 8)
Description: An MDA-MB-453 breast cancer xenograft was implanted under the skin of a nude mouse. […] The volume of the tumor xenograft was monitored daily.

[4] = test system: Btk expressing B cell lymphoma cell lines; assay: Sensitivity of a panel of nine Btk expressing B cell lymphoma cell lines; assay type: cell-based; details: two cell lines with low pERK levels
Method: After 72 hours, cell number was measured using Alamar Blue using manufacturer's protocol. A dilution series of untreated cells was run in parallel to verify that the Alamar Blue assay reliably reflected cell number and that growth conditions, were not limiting. […] GI50 values were confirmed in two or more separate experiments for each cell line.
A panel of nine Btk expressing B cell lymphoma cell lines was screened for basal pERK levels.

[5] = test system: Ramos; assay: Sensitivity of Ramos cell line; assay type: cell-based
Description: To identify biomarkers that correlate with response to Compound 1, phosphorylation events in the BCR signal transduction pathway were investigated.

[6] = test system: normal human B cells; assay: B cell activation after brief exposure and washout (CD69); assay type: cell-based; details: 1 hour exposure, washed three times, IgM F(ab')2 stimulation 18 hours
Method: B cells were purified from blood from healthy donors by negative selecting using the RosetteSep Human B cell enrichment cocktail. […] After incubation for 1 hour at 37° C., cells were washed three times using an 8-fold dilution in growth media for each wash. Cells were then stimulated with 10 ug/ml of IgM F(ab′)2 for 18 hours at 37° C. Cells were then stained with anti-CD69-PE antibody and analyzed by flow cytometry using standard conditions.

[7] = test system: mast cell degranulation; assay: Mouse passive cutaneous anaphylaxis model; assay type: in vivo; details: increasing doses, single oral dose
Method: (FIG. 4) Mice were sensitized with an intradermal injection of monoclonal anti-DNP-IgE in the back. […] After one hour, animals were challenged with an intravenous injection of DNP-BSA and Evans Blue dye. Mast cell degranulation leads to vascular permeability and the distribution of the dye into the skin of the back. The area of extravasation after 1 hour is measured.

[8] = target: Tec family kinases, including Btk, and Src family kinases; assay: In vitro profiling against a panel of greater than 100 kinases; assay type: biochemical
Description: By way of example only and in some embodiments, the observed potency, selectivity, and cell permeability of compounds such as Compound 2 are appropriate to incorporate these molecules into a Kinase-targeted, activity based probe that allows direct visualization of Kinase activity in intact cells. […] Without limiting the scope of the compositions and methods described herein, it is postulated that the structural basis for the selectivity is covalent modification of a non-catalytic cysteine residue (Cys 481 in Btk) that is conserved in the ATP binding pocket of the Tec family and several other kinases.

[9] = target: BTK (Homo sapiens (Human), UniProt Q06187); assay: HotSpot kinase assay, BTK; assay type: biochemical; details: Table 2; 1 uM ATP, one hour incubation with inhibitor
[10] = target: HER4 (Homo sapiens (Human), UniProt Q15303); assay: HotSpot kinase assay, HER4; assay type: biochemical; details: Table 1, first of two rows printed HER4; 1 uM ATP
Sequence of HER4 (Q15303 other isoform, or with tags, fused parts or gaps): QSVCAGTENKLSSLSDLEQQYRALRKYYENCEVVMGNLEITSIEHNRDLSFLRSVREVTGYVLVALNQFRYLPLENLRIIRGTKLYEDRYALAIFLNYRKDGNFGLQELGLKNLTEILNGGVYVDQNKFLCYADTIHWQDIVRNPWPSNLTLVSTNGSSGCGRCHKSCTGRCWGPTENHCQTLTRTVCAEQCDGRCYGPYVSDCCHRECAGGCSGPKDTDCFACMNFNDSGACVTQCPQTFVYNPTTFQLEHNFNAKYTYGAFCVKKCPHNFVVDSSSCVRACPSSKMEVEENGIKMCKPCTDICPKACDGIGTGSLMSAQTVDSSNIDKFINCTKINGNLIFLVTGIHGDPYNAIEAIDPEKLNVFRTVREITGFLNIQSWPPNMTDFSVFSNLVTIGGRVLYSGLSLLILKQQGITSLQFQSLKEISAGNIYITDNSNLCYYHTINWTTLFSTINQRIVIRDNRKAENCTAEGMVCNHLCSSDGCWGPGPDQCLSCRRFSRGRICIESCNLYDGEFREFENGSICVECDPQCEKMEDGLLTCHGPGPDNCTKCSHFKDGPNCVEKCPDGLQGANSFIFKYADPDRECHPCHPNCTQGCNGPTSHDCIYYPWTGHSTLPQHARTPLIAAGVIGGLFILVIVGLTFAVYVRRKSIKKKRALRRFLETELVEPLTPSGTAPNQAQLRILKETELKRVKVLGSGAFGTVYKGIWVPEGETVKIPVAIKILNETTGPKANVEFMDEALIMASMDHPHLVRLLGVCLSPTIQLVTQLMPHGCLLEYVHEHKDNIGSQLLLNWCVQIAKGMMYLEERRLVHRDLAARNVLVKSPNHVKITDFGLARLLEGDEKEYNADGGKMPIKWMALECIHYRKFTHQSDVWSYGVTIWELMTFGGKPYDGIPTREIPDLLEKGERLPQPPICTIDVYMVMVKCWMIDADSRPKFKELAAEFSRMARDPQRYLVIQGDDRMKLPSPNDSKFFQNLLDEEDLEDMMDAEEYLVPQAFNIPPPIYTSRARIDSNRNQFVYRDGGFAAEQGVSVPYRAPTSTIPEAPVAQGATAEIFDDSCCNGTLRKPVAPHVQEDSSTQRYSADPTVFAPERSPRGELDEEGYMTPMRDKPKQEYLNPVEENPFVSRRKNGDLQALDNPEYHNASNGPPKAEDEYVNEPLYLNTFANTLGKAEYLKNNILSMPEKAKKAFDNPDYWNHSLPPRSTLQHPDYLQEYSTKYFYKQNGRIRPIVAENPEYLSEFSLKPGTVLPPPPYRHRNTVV

Sequence of BTK (Q06187 whole entry): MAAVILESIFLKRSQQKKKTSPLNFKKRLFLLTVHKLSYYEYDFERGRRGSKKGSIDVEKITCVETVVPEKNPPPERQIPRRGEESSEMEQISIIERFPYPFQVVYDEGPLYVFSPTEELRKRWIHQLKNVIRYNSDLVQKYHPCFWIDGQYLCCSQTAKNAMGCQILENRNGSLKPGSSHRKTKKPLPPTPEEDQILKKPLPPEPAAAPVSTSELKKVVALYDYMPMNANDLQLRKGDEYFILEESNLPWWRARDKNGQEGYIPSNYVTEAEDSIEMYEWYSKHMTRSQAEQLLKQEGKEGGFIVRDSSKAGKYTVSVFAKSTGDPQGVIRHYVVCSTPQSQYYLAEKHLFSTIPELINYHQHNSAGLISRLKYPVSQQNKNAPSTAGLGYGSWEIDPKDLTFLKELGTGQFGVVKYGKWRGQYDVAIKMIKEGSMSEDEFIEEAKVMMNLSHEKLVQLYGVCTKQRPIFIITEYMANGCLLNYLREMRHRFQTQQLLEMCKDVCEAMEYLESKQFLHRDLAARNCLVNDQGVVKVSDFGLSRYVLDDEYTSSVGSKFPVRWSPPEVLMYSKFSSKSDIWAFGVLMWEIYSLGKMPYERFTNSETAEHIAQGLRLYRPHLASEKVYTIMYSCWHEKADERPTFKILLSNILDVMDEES

SMILES: C=CC(=O)N1CCC[C@@H](n2nc(-c3ccc(Oc4ccccc4)cc3)c3c(N)ncnc32)C1 [Compound 1]
- in vivo half-life [1]: short half-life
- proteinuria [2]: significantly reduced proteinuria
- efficacy in xenograft [3]: efficacy
- sensitivity to compound [4]: resistant
- sensitivity to compound [5]: resistant
- inhibition of B cell activation [6]: sufficient to inhibit B cell activation
- amount of Evans Blue release [7]: significantly decrease the amount of Evans Blue release

SMILES: CN(C)C/C=C/C(=O)N1CCC[C@@H](n2nc(-c3ccc(Oc4ccccc4)cc3)c3c(N)ncnc32)C1 [Compound 2]
- kinase panel profile [8]: highly potent and selective inhibitor of Tec family kinases

SMILES: CN(C/C=C/C(=O)N1CCCC(n2nc(-c3ccc(Oc4ccccc4)cc3)c3c(N)ncnc32)C1)CCO (centres unmarked) [Compound 3]
- IC50 [9]: 21 nM

Further lines, results first:

- in vivo half-life [1]: short half-life
SMILES: CN(C)C/C=C/C(=O)N1CCC[C@H]1Cn1nc(-c2ccc(Oc3ccccc3)cc2)c2c(N)ncnc21 [Compound 12, (E)-1-((S)-2-((4-amino-3-(4-phenoxyphenyl)-1H-pyrazolo[3,4-d]pyrimidin-1-yl)methyl)pyrrolidin-1-yl)-4-(dimethylamino)but-2-en-1-one]

- IC50 [10]: 1540 nM
SMILES: C=CC(=O)N[C@H]1CC[C@@H](n2nc(-c3ccc(Oc4ccccc4)cc3)c3c(N)ncnc32)CC1 [Compound 9]
